Assay results published in patent publication US20220370310A1, “SURFACE-TREATED MAGNESIUM OR CALCIUM ION-CONTAINING MATERIALS AS WHITE PIGMENTS IN ORAL CARE COMPOSITIONS” (CHILDREN'S MEDICAL CENTER CORPORATION, priority 2020, published 2022).

Legend:
[1] = tested on: antigen-specific T cell responses; assay: In vivo OVA immunization and T cell re-stimulation; parameters: species or system C57BL/6J mice
Procedure: Flow cytometry: After FcR blockade, 7 days BMDCs were resuspended in MACS buffer (PBS with 1% FCS and 2 mM EDTA), and stained with the following fluorescently conjugated antibodies (BioLegend): anti-CD11c (clone N418), anti-I-A/I-E (clone M5/114.15.2), anti-CD40 (clone 3/23), anti-CD80(16-10A1), anti-CD69 clone (H1.2F3), anti-H-2Kb (clone AF6-88.5). Single cell suspension from the tumor or draining inguinal lymph nodes, or skin inguinal adipose tissue were resuspended in MACS buffer (PBS with 1% FCS and 2 mM EDTA), and stained with the following fluorescently conjugated antibodies (BioLegend): anti-CD8a (clone 53-6.7), anti-CD4 (clone RM4-5), anti-CD44 (clone IM7), anti-CD62L (MEL-14), anti-CD3 (17A2), anti-CD103 (2E7), anti-CD69 clone (H1.2F3), anti-CD45 (A20 or 30F11). LIVE/DEAD™ Fixable Violet Dead Cell Stain Kit (Molecular probes) was used to determine the viability of cells, and cells were stained for 20 minutes in PBS at 4° C. Draining inguinal lymph nodes T cells were stained with OVA-peptide tetramers at room temperature for 1 h. PE-conjugated H2K(b) SIINFEKL (OVA 257-264; SEQ ID NO: 1) and APC conjugated I-A(b) AAHAEINEA (OVA 329-337; SEQ ID NO: 2) were used. I-A(b) and H2K(b) associated with CLIP peptides were used as isotype controls. […] Data were analyzed using FlowJo software.
Intracellular staining: For intracellular cytokine staining, cells were stimulated with 50 ng/ml phorbol 12-myristate 13-acetate (PMA) and 500 ng/ml ionomycin (Sigma-Aldrich) in the presence of GolgiStop (BD) and brefeldin A for 4-5 h. […] Data were analyzed using FlowJo software.
In vivo immunization and T cell re-stimulation: Female C57BL/6J mice aged 8 weeks, were immunized subcutaneously (s.c.) on the left lower back with either 150 μg/mouse endotoxin-free OVA plus 10 μg/mouse LPS emulsified in incomplete Freund's adjuvant, or with 150 μg/mouse endotoxin-free OVA, plus 65 μg/mouse oxPAPC or PGPC, plus 10 μg/mouse LPS emulsified in incomplete Freund's adjuvant. […] Secretion of IFNγ, IL-10 and IL-2 were measured by ELISA 5 days later. […]

B16OVA cells = assay: Immunization prior to tumor inoculation, B16OVA challenge; format: in vivo, C57BL/6 mice; conditions: s.c. immunization with B16OVA WTL, challenge 15 days later
Procedure: Whole tumor cell lysates preparation: To prepare whole tumor cell lysates (WTL) for immunization, tumor cell lines were cultured for 4-5 days in complete DMEM. When cells became confluent, supernatants were collected, and the cells were washed and dissociated using trypsin-EDTA (Gibco). Tumor cell lines were then resuspended at 5×10^6 cells/ml in their collected culture supernatant, then lysed by 3 cycles of freeze-thawing.
In vivo immunization and tumor challenges: For immunization prior tumor inoculation, C57BL/6 mice were injected subcutaneously (s.c.) into the right flank with PBS (unimmunized), WTL alone or with LPS, or WTL plus LPS and OxPAPC or PGPC all emulsified in incomplete Freud's adjuvant (IFA). In some experiments, LPS is replaced by MPLA. […] Tumor-free mice were re-challenged s.c. into the upper back with a lethal dose of 5×10^5 viable B16OVA or B16F-10 cells, or 1×10^6 of viable MC38-OVA cells as indicated.
Tumor Infiltration: To assess the frequency of tumor-infiltrating lymphocytes (TIL) in immunized mice, tumors were harvested when their size reached 1.8-2 cm. Tumors were dissociated using the tumor Dissociation Kit (Milteny Biotec) and the gentleMACS dissociator following the manufacturer's protocol. […] CD45^+ cells were positively selected using CD45 microbeads (Milteny Biotec), and T cell infiltration was assessed by flow cytometry. […]

OT-I and OT-II T cells = assay: OT-I and OT-II in vitro T-cell stimulation; format: cell-based, mouse; conditions: OVA-loaded BMDCs pretreated with stimulus, FIG. 1F
Procedure: OT-I and OT-II in vitro T-cell stimulation: Splenic CD8+ and CD4^+ T cells were sorted from OT-I and OT-II mice by magnetic cell sorting with anti-CD8 beads or anti-CD4 beads respectively (Miltenyi Biotech). Sorted T cells were then seeded in 96-well plates at a concentration of 100.000 cells per well in the presence of either 20.000 or 10.000 DCs (5:1 or 10:1 ratio) that were pretreated with either LPS (activation stimuli) or LPS+PGPC (hyperactivation stimuli) or LPS+Alum (pyroptotic stimuli) and pulsed (or not) with OVA protein or SIINFEKL (SEQ ID NO: 1) peptide at 100 μg/ml for 2 hours. 5 days post culture, supernatants were collected and clarified by centrifugation for short-term storage at −20° C. and cytokine measurement by ELISA.
Intracellular staining: For intracellular cytokine staining, cells were stimulated with 50 ng/ml phorbol 12-myristate 13-acetate (PMA) and 500 ng/ml ionomycin (Sigma-Aldrich) in the presence of GolgiStop (BD) and brefeldin A for 4-5 h. Cells were then washed twice with PBS, and stained with LIVE/DEAD™ Fixable violet or green Dead Cell Stain Kit (Molecular probes) in PBS for 20 min at 4° C. Cells were washed with MACS buffer, and stained for appropriate surface markers for 20 min at 4° C. […] Data were analyzed using FlowJo software.

BMDCs = conditions: prior work (Zanoni et al., 2016); cited from earlier work

Compound | effector and memory T cell generation in dLN ([1]; 7 and 40 days post-immunization with OVA (+LPS), CD44/CD62L flow cytometry) | antigen-specific tetramer+IFNγ+ T cell responses ([1]; WT mice, 7 days post immunization with OVA, re-stimulated 7 days with OVA-loaded BMDC) | protection against B16OVA tumor challenge (B16OVA cells) | IL-10 and IL-13 release by OT-II T cells (OT-I and OT-II T cells) | TH1/TH2 phenotype of the T cell response ([1]; immunization with OVA) | TNFα and IL-1β release by LPS-activated BMDCs (BMDCs)
CCCCCCCCCCCCCCCC(=O)OC[C@H](COP(=O)([O-])OCC[N+](C)(C)C)OC(=O)CCCC(=O)O [PGPC, [(2R)-2-(4-carboxybutanoyloxy)-3-hexadecanoyloxypropyl] 2-(trimethylazaniumyl)ethyl phosphate] | enhance the magnitude of effector and memory T cell generation | highest frequency of tetramer+IFNγ+ responses | confers optimal protection | – | – | –
lipopolysaccharide [LPS] | – | – | – | large amounts of IL-10, and IL-13 | mixed TH1 and TH2 phenotype | release TNFα but not IL-1β
